Measurements: US9434684B2, “Oxime-substituted amide compound and pest control agent” (Nissan Chemical Industries, Ltd., priority 2012, dated 2016)

Assays:
[1] = tested on: Botrytis cinerea; experiment: Preventive effect against cucumber gray mold (spore inoculation); type: in vivo; conditions: 72 h, cucumber leaves, test solution A 500 ppm, 3 days
Method: Compounds of the present invention were dissolved in a solvent for emulsion (a mixture of Sorpol (registered trademark) 3005XL (manufactured by Toho Chemical Industry Co., Ltd.): N-methylpyrrolidone:Solvesso (registered trademark) 200 (manufactured by ExxonMobil Chemical) in a ratio of 1:5:2) to prepare 20% emulsifiable concentrates. Then, distilled water was added to dilute the emulsifiable concentrates to the predetermined concentration (500 ppm), and the obtained solutions were used in the following Test Examples 1 to 7. Cucumber (cultivar: Sagami Hanjiro) was planted in 90 cm^3 plastic pots, and in the seed leaf stage, 5 ml per pot of test solutions A of the compounds of the present invention were applied. After drying in air, the treated leaves were cut and put in plastic containers. 30 μl of a mixture of a suspension of conidium of Botrytis cinerea and a dissolved PDA medium in a ratio of 1:1 was dropped on each treated leaf and inoculated. After the inoculation, the plastic containers were placed at 20° C. in humid conditions for 3 days, and the proportion of the formed lesion in the inoculated leaves was measured to calculate the control value in accordance with the same formula as in Test Example 1. Here, the test was carried out in duplicate.

[2] = tested on: Botrytis cinerea; experiment: Preventive effect against cucumber gray mold (mycelium inoculation); type: in vivo; conditions: 48 h, test solution A 500 ppm, 2 days
Method: (§1) Compounds of the present invention were dissolved in a solvent for emulsion (a mixture of Sorpol (registered trademark) 3005XL (manufactured by Toho Chemical Industry Co., Ltd.): N-methylpyrrolidone:Solvesso (registered trademark) 200 (manufactured by ExxonMobil Chemical) in a ratio of 1:5:2) to prepare 20% emulsifiable concentrates. Then, distilled water was added to dilute the emulsifiable concentrates to the predetermined concentration (500 ppm), and the obtained solutions were used in the following Test Examples 1 to 7. Cucumber (cultivar: Sagami Hanjiro) was planted in 90 cm^3 plastic pots, and in the seed leaf stage, 5 ml per pot of test solutions A of the compounds of the present invention were applied. On the next day, the pots were put in a plastic container, and agar blocks (diameter: 5 mm) containing Botrytis cinerea preliminarily cultivated in a PDA medium were inoculated to the seed leaves of the cucumber treated with the solutions. After the inoculation, the plastic container was covered with a plastic sheet and humidified, and placed at 20° C. for 2 days, whereupon the proportion of the formed lesion in the inoculated leaves was measured to calculate the control value in accordance with the same formula as in Test Example 1. Here, the test was carried out in duplicate.

[3] = tested on: Sclerotinia sclerotiorum; experiment: Preventive effect against cucumber stem rot; type: in vivo; conditions: 48 h, test solution A 500 ppm, 2 days
Method: as §1, with “After drying in air,” for “On the next day,”, “Sclerotinia sclerotiorum” for “Botrytis cinerea”

[4] = tested on: Phaeosphaeria nodorum (synonym: Septoria nodorum); experiment: Preventive effect against wheat glume blotch; type: in vivo; conditions: Parastagonospora nodorum, 192 h, test solution A 500 ppm, 2 + 6 days
Method: (§2) Compounds of the present invention were dissolved in a solvent for emulsion (a mixture of Sorpol (registered trademark) 3005XL (manufactured by Toho Chemical Industry Co., Ltd.): N-methylpyrrolidone:Solvesso (registered trademark) 200 (manufactured by ExxonMobil Chemical) in a ratio of 1:5:2) to prepare 20% emulsifiable concentrates. Then, distilled water was added to dilute the emulsifiable concentrates to the predetermined concentration (500 ppm), and the obtained solutions were used in the following Test Examples 1 to 7. To wheat (cultivar: Haruyutaka) in 1.3-leaf stage planted in 90 cm^3 plastic pots, 5 ml per pot of test solutions A of the compounds of the present invention were applied. On the next day, a suspension of conidium of Phaeosphaeria nodorum synonym: Septoria nodorum) was spray-inoculated to the wheat, and the pots were placed in an inoculation chamber at 20° C. under a humidity of 100% for 2 days. Then, the pots were placed in an air-conditioned greenhouse (20° C.) for 6 days. The proportion of the formed lesion in the inoculated leaves was measured to calculate the control value in accordance with the same formula as in Test Example 1. Here, the test was carried out in duplicate.

[5] = tested on: Puccinia recondita; experiment: Preventive effect against wheat brown leaf rust; type: in vivo; conditions: 216 h, test solution A 500 ppm, 1 + 8 days
Method: as §2, with “Norin-61-go)” for “Haruyutaka)”, “spore” for “conidium”, “Puccinia recondita” for “Phaeosphaeria nodorum synonym: Septoria nodorum)”, “1 day.” for “2 days.”, “8” for “6”

[6] = tested on: Meloidogyne incognita; experiment: Preventive effect on Meloidogyne incognita (garden balsam seedlings, root knot); type: in vivo; conditions: 504 h, test solution B 100 ppm, 1 ml per seedling, 3 weeks, read-out: efficacy (damage degree, root knot, relative to non-treated plot)
Method: Compounds of the present invention were dissolved in dimethylsulfoxide to prepare 1% solutions. Then, distilled water was added to dilute the solutions to the predetermined concentration (100 ppm), and the obtained solutions were used in the following Test Examples 8 to 12. 1 ml per seedling of test solutions B of the compounds of the present invention were treated to the bases of garden balsam seedlings (about 2 weeks after budding) planted in a cell tray of which each cell was filled with 10 g of soil. 1 Hour after the application, 1 ml per cell of water containing Meloidogyne incognita 2 L larvae (100 2 L larvae/1 ml) was applied to the bases. The tray was placed in a greenhouse for 3 weeks, and the root knot level formed on the root was determined in accordance with the following damage index and the damage degree to calculate the efficacy (%) relative to the non-treated plot in accordance with the following formula. <Damage Index> 0: No knot observed. 1: Knot observed on a part of the root system. 2: Knot observed on the entire root system. 3: Large knot observed. 4: Large knot observed on the entire root system. [Damage degree]=[Σ(damage index×number of seedlings at each index)/(4×number of seedlings investigated)]×100 Efficacy(%)=[1−(damage degree in treated plot/damage degree in non-treated plot)]×100

[7] = tested on: Botrytis cinerea; experiment: Preventive effect against cucumber gray mold (spore inoculation); type: in vivo; conditions: 72 h, cucumber leaves, 100 ppm solution (*), 3 days
[8] = tested on: Botrytis cinerea; experiment: Preventive effect against cucumber gray mold (mycelium inoculation); type: in vivo; conditions: 48 h, 100 ppm solution (*), 2 days

melting point [°C] | SMILES | pest or weed control at 500 µg/mL [1] [%] | pest or weed control at 500 µg/mL [2] [%] | pest or weed control at 500 µg/mL [3] [%] | pest or weed control at 500 µg/mL [4] [%] | pest or weed control at 500 µg/mL [5] [%] | pest or weed control at 100 µg/mL [6] [%] | pest or weed control at 100 ppm [7] [%] | pest or weed control at 100 ppm [8] [%]
– | CON=C(CN(SC(Cl)(Cl)Cl)C(=O)c1ccccc1C(F)(F)F)c1ncc(Cl)cc1Cl [4-015] | ≥ 70 | ≥ 70 | ≥ 70 | – | – | – | – | –
84 to 86 | CCO/N=C(/CNC(=O)c1ccccc1C(F)(F)F)c1ncc(Cl)cc1Cl [Compound No. 2-120, (Z)—N-[2-(3,5-dichloropyridin-2-yl)-2-(ethoxyimino)ethyl]-2-(trifluoromethyl)benzamide] | ≥ 70 | ≥ 70 | – | ≥ 70 | ≥ 70 | ≥ 50 | – | –
– | CON=C(CNC(=S)c1ccccc1C(F)(F)F)c1ncc(Br)cc1Cl [Compound No. 5-001, N-[2-(5-bromo-3-chloropyridin-2-yl)-2-(methoxyimino)ethyl]-2-(trifluoromethyl)benzthioamide] | ≥ 70 | ≥ 70 | ≥ 70 | ≥ 70 | ≥ 70 | – | – | –
– | CC(C)(C)ON=C(CNC(=O)c1nccnc1C(F)(F)F)c1ncc(Cl)cc1Cl (single isomer, unassigned) [9-006, N-[2-(3,5-dichloropyridin-2-yl)-2-(tert-butoxyimino)ethyl]-3-(trifluoromethyl)pyrazine-2-carboxamide] | – | ≥ 70 | ≥ 70 | – | – | – | – | –
– | CCO/N=C(\c1ncc(Cl)cc1Cl)[C@H](C)NC(=O)c1ccccc1C(F)(F)F [2-124, (S)—N-[2-(3,5-dichloropyridin-2-yl)-2-[(Z)-ethoxyimino]-1-methylethyl]-2-(trifluoromethyl)benzamide] | ≥ 70 | ≥ 70 | ≥ 70 | ≥ 70 | ≥ 70 | – | – | –
– | CON=C(c1ncc(Cl)cc1Cl)C(C)NC(=O)c1ccccc1C(F)(F)F (centres unmarked) [Compound No. 2-115, N-[2-(3,5-dichloropyridin-2-yl)-2-methoxyimino-1-methylethyl]-2-(trifluoromethyl)benzamide] | ≥ 70 | ≥ 70 | ≥ 70 | ≥ 70 | ≥ 70 | ≥ 50 | – | –
– | CC(C)ON=C(CNC(=O)c1ccccc1C(F)(F)F)c1ncc(Cl)nc1Cl [24-001] | ≥ 70 | ≥ 70 | ≥ 70 | – | – | – | – | –
88 to 89 | CO/N=C(/CNC(=O)c1ccccc1C(F)(F)F)c1ncc(Cl)cc1Cl [Compound No. 2-114, (Z)—N-[2-(3,5-dichloropyridin-2-yl)-2-(methoxyimino)ethyl]-2-(trifluoromethyl)benzamide] | – | – | ≥ 70 | – | – | ≥ 50 | ≥ 70 | ≥ 70
– | CON=C(CN(C(C)=O)C(=O)c1ccccc1C(F)(F)F)c1ncc(Cl)cc1Cl [4-013] | ≥ 70 | ≥ 70 | ≥ 70 | – | – | – | – | –
80 to 83 | CCCO/N=C(/CNC(=O)c1ccccc1C(F)(F)F)c1ncc(Cl)cc1Cl [Compound No. 2-126, (Z)—N-[2-(3,5-dichloropyridin-2-yl)-2-(propoxyimino)ethyl]-2-(trifluoromethyl)benzamide] | – | – | – | – | ≥ 70 | ≥ 50 | – | –
95 to 97 | CON=C(CN(C(=O)c1c(C(F)(F)F)nn(C)c1F)C1CC1)c1ncc(Cl)cc1Cl [Compound No. 17-009, N-cyclopropyl-N-[2-(3,5-dichloropyridin-2-yl)-2-(methoxyimino)ethyl]-5-fluoro-1-methyl-3-trifluoromethyl-1H-pyrazole-4-carboxamide] | ≥ 70 | – | ≥ 70 | ≥ 70 | – | – | – | –
104 to 105 | CO/N=C(\c1ncc(Cl)cc1Cl)C(C)NC(=O)c1ccccc1C(F)(F)F (centres unmarked) [Compound No. 2-117, (Z)—N-[2-(3,5-dichloropyridin-2-yl)-2-methoxyimino-1-methylethyl]-2-(trifluoromethyl)benzamide] | ≥ 70 | ≥ 70 | – | – | ≥ 70 | ≥ 50 | – | –
